{"source": "patent US12370164B2", "about": "“Chlorogenic acid composition for promoting a healthy body weight” (Vidya Herbs, Inc., priority 2017, dated 2025)", "key": {"[1]": {"tested_on": "Salmonella typhimurium TA 98", "assay": "Ames Salmonella mutagenicity test, strain TA 98", "type": "cell-based", "settings": "TA 98, +s9, positive control, concentration not given"}, "[2]": {"tested_on": "Salmonella typhimurium TA 100", "type": "cell-based", "settings": "TA 100, +s9, positive control, concentration not given", "from_the_text": "This assay helps to identify substances that can produce genetic damage that leads to gene mutations. Mutant strains of Salmonella typhimurium that are used in AMES assay cannot synthesize histidine, and are very susceptible to additional mutations because they lack the normal repair mechanisms found in bacteria. These mutant strains are more permeable than wild-type bacteria to external chemicals, including potential mutagens. In order for these cells to survive on a plate that lacks histidine, they must regain the ability to synthesize histidine by undergoing another mutation that corrects the original mutation that prevented the production of the missing enzyme. This type of mutation is known as a back mutation, or reversion, because this second mutation returns the mutant to the wild-type (prototrophic) phenotype. This reversion can happen spontaneously due to incorrect DNA replication or as the result of a mutagen.\nIn this assay specific strains of the bacteria Salmonella typhimurium (TA 98, TA 100) were used to detect mutations. […]\nBriefly, 0.5 ml of S9 mix (or 0.1 M phosphate buffer, pH 7.4), 0.1 ml of bacterial culture and 0.1 ml of test solution (or solvent) were added to each tube. […] After incubation for approximately 48 h the revertant colonies were counted."}, "[3]": {"assay": "Superoxide anion scavenging activity", "method": "Prepared all the solutions in this experiment using phosphate buffer (pH 7.4). Added 1 ml of NBT (156 μM), 1 ml of NADH (468 μM) and 3 ml of test samples to all test tubes. The reaction was started by adding 100 ml of PMS (60 μM) and incubated the mixture at 25° C. for 5 min followed by measurement of absorbance at 560 nm. The percentage of scavenging was calculated using formula: % Scavenging=Ac−As/Ac×100 Where AC was the absorbance of the control (blank) and As was the absorbance in the presence of the composition."}, "[4]": {"assay": "DPPH radical scavenging assay", "description": "The free radical scavenging capacity of the test sample was determined using DPPH scavenging assay. DPPH solution was prepared in 95% methanol. Freshly prepared DPPH solution was taken in test tubes and different concentration of test samples were added and incubated for 20 min. The absorbance was read at 517 nm using a spectrophotometer. Blank was prepared containing the same volume of reaction mixture without any tested samples. The percentage of scavenging was calculated using the formula: % Scavenging=Ac−As/Ac×100 Where AC was the absorbance of the control (blank) and AS was the absorbance in the presence of the composition (Braca et al., 2001). Results"}, "[5]": {"tested_on": "calf thymus DNA", "assay": "Protective effect on DNA scission induced by hydroxyl radical", "description": "In this assay hydroxyl radicals are typically generated within a mixture of ascorbic acid, H2O2 and Fe3+-ethylenediaminetetracetic acid (EDTA); those radicals that are not scavenged by other components of the reaction mixture will eventually attack deoxyribose, thus degrading it into a series of fragments.\nThe experiment was conducted using calf thymus DNA. Briefly, the sample was dissolved in ethanol at 1 mg/mL. 50 μl of different concentration of sample was then separately taken into mini tubes followed by addition of 400 μL of phosphate buffer (0.2 mol/L, pH 7.4). Subsequently, 50 μL DNA sodium, 50 μL H2O2, 50 μL FeCl3 and 50 μL Na2EDTA (1 mmol/L) were added. The reaction was initiated by adding 50 μL ascorbic acid (18 mmol/L) and the total volume of the reaction mixture was adjusted to 800 μL with buffer. After incubation in a water bath at 55° C. for 20 min, the reaction was terminated by adding 250 μL TCA.\nThe color was then developed by addition of 150 μL of TBA and heating in an oven at 105° C. for 15 min. The mixture was cooled and absorbance was measured at 532 nm against the buffer (as blank). The percent of protection against DNA damage is expressed Protective effect %=(1−A/A0)×100 Where A0 is the absorbance of the mixture without sample, and A is the absorbance of the mixture with sample. Results"}}, "note": "“And” between values parts separate entries of the source, which are not always exact repeats. Equal values may be shown once.", "data": [{"smiles": "Nc1ccc2cc3ccccc3cc2c1", "note": "[2AF, 2-aminoanthracene]", "values": [{"measurement": "Revertant colonies/plate", "setting": "[1]", "result": "1560 ± 3.53", "unit": "colonies/plate"}, {"measurement": "Revertant colonies/plate", "setting": "[2]", "result": "2737 ± 4.9", "unit": "colonies/plate"}]}, {"smiles": "O=C1O[C@H]([C@@H](O)CO)C(O)=C1O", "note": "[Ascorbic acid]", "values": [{"measurement": "% inhibition (superoxide scavenging)", "setting": "[3]; 20 μg/ml", "result": 84.80, "unit": "%"}, {"measurement": "Absorbance @517 nm (superoxide scavenging)", "setting": "[3]; 20 μg/ml", "result": 0.038}, {"measurement": "% inhibition (superoxide scavenging)", "setting": "[3]; 40 μg/ml", "result": 85.20, "unit": "%"}, {"measurement": "Absorbance @517 nm (superoxide scavenging)", "setting": "[3]; 40 μg/ml", "result": 0.037}, {"measurement": "% inhibition (superoxide scavenging)", "setting": "[3]; 60 μg/ml", "result": 88.40, "unit": "%"}, {"measurement": "Absorbance @517 nm (superoxide scavenging)", "setting": "[3]; 60 μg/ml", "result": 0.029}, {"measurement": "% inhibition (superoxide scavenging)", "setting": "[3]; 80 μg/ml", "result": 89.20, "unit": "%"}, {"measurement": "Absorbance @517 nm (superoxide scavenging)", "setting": "[3]; 80 μg/ml", "result": 0.027}, {"measurement": "% inhibition (superoxide scavenging)", "setting": "[3]; 100 μg/ml", "result": 89.60, "unit": "%"}, {"measurement": "Absorbance @517 nm (superoxide scavenging)", "setting": "[3]; 100 μg/ml", "result": 0.026}, {"measurement": "% inhibition (DPPH scavenging)", "setting": "[4]; 20 μg/ml", "result": 83.21, "unit": "%"}, {"measurement": "Absorbance @517 nm", "setting": "[4]; 20 μg/ml", "result": 0.046}, {"measurement": "% inhibition (DPPH scavenging)", "setting": "[4]; 40 μg/ml", "result": 90.88, "unit": "%"}, {"measurement": "Absorbance @517 nm", "setting": "[4]; 40 μg/ml", "result": 0.025}, {"measurement": "% inhibition (DPPH scavenging)", "setting": "[4]; 60 μg/ml", "result": 94.53, "unit": "%"}, {"measurement": "Absorbance @517 nm", "setting": "[4]; 60 μg/ml", "result": 0.015}, {"measurement": "% inhibition (DPPH scavenging)", "setting": "[4]; 80 μg/ml", "result": 94.89, "unit": "%"}, {"measurement": "Absorbance @517 nm", "setting": "[4]; 80 μg/ml", "result": 0.014}, {"measurement": "% inhibition (DPPH scavenging)", "setting": "[4]; 100 μg/ml", "result": 96.72, "unit": "%"}, {"measurement": "Absorbance @517 nm", "setting": "[4]; 100 μg/ml", "result": 0.009}, {"measurement": "% inhibition (DPPH scavenging)", "setting": "[4]; 100 μg/ml, listed as ascorbic acid", "result": 96.71, "unit": "%"}]}, {"smiles": "COc1ccc(O)c(C(C)(C)C)c1", "note": "[BHA]", "values": [{"measurement": "% protective effect against DNA damage", "setting": "[5]; 10 μg/ml", "result": "15.79 ± 0.89", "unit": "%"}, {"measurement": "% protective effect against DNA damage", "setting": "[5]; 20 μg/ml", "result": "19.25 ± 1.09", "unit": "%"}, {"measurement": "% protective effect against DNA damage", "setting": "[5]; 40 μg/ml", "result": "32.50 ± 2.12", "unit": "%"}, {"measurement": "% protective effect against DNA damage", "setting": "[5]; 60 μg/ml", "result": "39.16 ± 0.33", "unit": "%"}, {"measurement": "% protective effect against DNA damage", "setting": "[5]; 80 μg/ml", "result": "43.04 ± 0.29", "unit": "%"}, {"measurement": "% protective effect against DNA damage", "setting": "[5]; 100 μg/ml", "result": "51.37% and 51.37 ± 4.06%"}]}]}
